Tests used:
[1] = tested on: JeKo-1; assay: Inhibition of class 1 HDAC in human JeKo-1 cells assessed as increase in histone H3 acetylation incubated for 24 hrs by Western blot analysis; type: cell-based; conditions: dose 0.25-1 µM
[2] = tested on: JeKo-1; assay: Induction of apoptosis in human JeKo-1 cells assessed as necrotic cells at 0.25 uM incubated for 48 hrs by Annexin-V/FITC and PI staining based flow cytometric analysis (reference value: 1.05%); type: functional

Question: Which results are given for `COc1nc(-c2ccc(NC(=O)Nc3ccc(C(=O)NCCCCCC(=O)Nc4ccccc4N)cc3)cc2)nc(N2CCOCC2)n1`?
Answer: inhibition [1]: Dose-Dependent Effect; Activity [2]: 0.85%

From ChEMBL document CHEMBL5634161, “Discovery of benzamide-based PI3K/HDAC dual inhibitors with marked pro-apoptosis activity in lymphoma cells” (Eur J Med Chem, 2023)
